Earlier results as cited in patent EP3156049A1, “PHARMACEUTICAL COMPOSITION OF PRASUGREL” (Alembic Pharmaceuticals Limited, priority 2015, dated 2017).
Read-outs that look alike come from different tables or passages of the source.

Solubility (pH 2): soluble
Solubility (pH 3 to 4): slightly soluble
Solubility (pH 6 to 7.5): practically insoluble
Compound: CC(=O)Oc1cc2c(s1)CCN(C(C(=O)C1CC1)c1ccccc1F)C2.Cl (racemic) [Prasugrel hydrochloride, 5-[(1RS)-2-cyclopropyl-1-(2-fluorophenyl)-2-oxoethyl]-4,5,6,7-tetrahydrothieno [3,2-c] pyridin-2-yl acetate hydrochloride]
